Results taken from article PMC12519282, “Reduction of Negative Charge in Mercaptoacetyl-Based Chelators Influences the Biodistribution of Prostate-Specific Membrane Antigen-Targeting Pseudopeptides Labeled with Technetium-99m” (ACS Pharmacology & Translational Science, 2025).
Where two headings read alike, the source gives them in different places. Marks after values point to notes of the source that are not given here.

Assays:
PC3-pip xenografts [1] = details: in vivo; cited from earlier work
PC3-pip xenografts [2] = test: biodistribution and tumor targeting in PC3-pip tumor-bearing mice; assay type: in vivo; details: PC3-pip tumor-bearing mice, 5 nmol/mouse iv
Description: The injected masses for the in vivo experiments were chosen based on the findings for [^99mTc]-Tc-BQ0413: to study the general biodistribution of radiolabeled tracers in normal mice (NMRI), 40 pmol of tracer was used to avoid blocking of PSMA-mediated uptake in kidneys and salivary glands, to study tumor targeting, 5 nmol of tracer was used to decrease uptake in PSMA-expressing organs.
PSMA-expressing PCa xenografts were implanted in BALB/c nu/nu mice by subcutaneous injection of the PC3-pip cell suspension in PBS (10^7 cells/animal in 100 μL). The average animal weight in the experiment was 18 ± 2 g. The average tumor weight was 0.4 ± 0.2 g. For in vivo specificity control, 10^7 cells/animal PSMA-negative PC-3 cells were implanted. The average animal weight was 18 ± 1 g. The average tumor weight was 0.1 ± 0.1 g. Four mice per data point were used in the in vivo experiments.
For tumor-bearing mice, each mouse was intravenously injected with 5 nmol of [^99mTc]-Tc-BQ0413, [^99mTc]-Tc-BQ0500, and [^99mTc]-Tc-BQ0501 (60 kBq; the mass of the injected compound was adjusted with an unlabeled tracer). The mice were euthanized after lethal intraperitoneal injection of ketamine/xylazine, followed by exsanguination 1 and 3 h pi, similarly to the procedure described above.

PSMA [3] = molecular target: T1, PSMA (Homo sapiens, UniProt Q04609); test: binding kinetics in real time on living PC3-pip cells (LigandTracer Yellow); details: 5 nM tracer, 1:2 model (1:1 for BQ0413)
T1 construct: expressed in transfected cells; host or cells: PC3-pip (PSMA-transfected PC-3 prostate carcinoma cells), from Prof; Martin G. Pomper, Johns Hopkins University
Experimental: The binding kinetics of technetium-99m-labeled BQ0413, BQ0500, and BQ0501 were determined in PC3-pip cells in real-time using LigandTracer Yellow (Ridgeview Instruments AB, Uppsala, Sweden). The activity binding was recorded with 5 nM radiolabeled tracers for 150 min. After the binding kinetics were measured, the medium containing the labeled tracer was replaced with fresh medium, and the dissociation was monitored over 7 h. The association rate (k a) and the dissociation rate (k d) were computed using a 1:2 kinetic binding model in TraceDrawer software (Ridgeview Instruments AB, Uppsala, Sweden), and the equilibrium dissociation constant K D was calculated.

PSMA [4] = molecular target: T1, PSMA; details: cited from earlier work
physchem = assay type: physicochemical; details: pH 7.4
Experimental: To evaluate the label’s stability, 10 μL (0.25 μg) of radiolabeled conjugates was incubated with 300× molar excess of cysteine or with PBS for 1 h at room temperature. The test was run in triplicate. The release of free technetium-99m was controlled by using iTLC and radio-HPLC analysis. The stability in serum was analyzed by mixing the radioconjugates (0.25 μg in 10 μL) with murine serum or PBS (40 μL) as a control. The samples were incubated for 1 h at 37 °C and analyzed by iTLC. The experiment was performed in triplicate. The octanol–water distribution coefficient (Log D) was determined experimentally by the addition of 100 pmol of the radiolabeled tracer to an Eppendorf tube containing PBS (500 μL) and n-octanol (500 μL), pH ∼ 7.4. The solution was vortexed and centrifuged, and aliquots (50 μL) from each phase were collected and measured using a gamma counter. The experiment was performed in triplicate.

T1 sequence (Q04609 whole entry): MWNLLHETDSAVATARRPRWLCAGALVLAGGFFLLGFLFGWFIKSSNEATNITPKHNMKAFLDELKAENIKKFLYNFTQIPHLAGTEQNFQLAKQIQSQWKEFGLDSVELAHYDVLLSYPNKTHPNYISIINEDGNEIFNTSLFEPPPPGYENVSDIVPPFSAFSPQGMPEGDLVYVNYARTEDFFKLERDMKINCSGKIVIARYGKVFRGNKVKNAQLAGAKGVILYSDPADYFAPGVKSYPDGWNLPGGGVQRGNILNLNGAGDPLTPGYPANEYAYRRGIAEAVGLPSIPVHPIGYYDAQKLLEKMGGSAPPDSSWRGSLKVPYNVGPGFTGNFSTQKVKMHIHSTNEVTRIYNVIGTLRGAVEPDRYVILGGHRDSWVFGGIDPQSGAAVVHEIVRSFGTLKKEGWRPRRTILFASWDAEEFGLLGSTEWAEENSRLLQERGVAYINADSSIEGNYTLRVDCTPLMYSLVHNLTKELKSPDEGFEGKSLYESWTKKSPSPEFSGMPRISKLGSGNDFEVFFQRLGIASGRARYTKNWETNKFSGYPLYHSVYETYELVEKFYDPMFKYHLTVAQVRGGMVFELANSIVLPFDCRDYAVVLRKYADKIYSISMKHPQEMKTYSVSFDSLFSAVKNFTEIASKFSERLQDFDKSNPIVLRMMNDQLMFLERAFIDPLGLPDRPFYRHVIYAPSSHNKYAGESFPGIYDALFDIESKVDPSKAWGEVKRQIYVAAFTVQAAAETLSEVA

For `CC(=O)NC(CCCCNC(=O)CNC(=O)C(CCC(=O)O)NC(=O)C(CCC(=O)O)NC(=O)C(CCC(=O)O)NC(=O)CS)C(=O)NCCCCCCCC(=O)NC(Cc1ccc(O)cc1)C(=O)NC(Cc1ccc2ccccc2c1)C(=O)NCCCCC(NC(=O)NC(CCC(=O)O)C(=O)O)C(=O)O` (stereo not shown) [[^99mTc]Tc-BQ0413, metal not drawn, reference compound], the excretion pathway (PC3-pip xenografts [1]) is listed as “renal”, the tumor uptake (PC3-pip xenografts [1]) is listed as 33 ± 3%IA/g (3 h) and the tumor-to-blood ratio (PC3-pip xenografts [1]) is listed as 314 ± 73 (3 h). For the same molecule, the activity in carcass (PC3-pip xenografts [2]; 1 h pi) was 8 ± 2 ^b %IA/sample, the “activity in intestines with content” value (PC3-pip xenografts [2]; 1 h pi) was 1.7 ± 0.4 %IA/sample and the “activity uptake in blood” value (PC3-pip xenografts [2]; 1 h pi) was 1.0 ± 0.3 ^b %IA/g. For the same molecule, the “activity uptake in bone” value (PC3-pip xenografts [2]; 1 h pi) was 0.9 ± 0.3 ^b %IA/g, the “activity uptake in kidney” value (PC3-pip xenografts [2]; 1 h pi) was 23 ± 3 ^b %IA/g and the “activity uptake in liver” value (PC3-pip xenografts [2]; 1 h pi) was 1.3 ± 0.4 ^b %IA/g. For the same molecule, the “activity uptake in lung” value (PC3-pip xenografts [2]; 1 h pi) was 1.2 ± 0.2 ^b %IA/g, the “activity uptake in muscle” value (PC3-pip xenografts [2]; 1 h pi) was 0.3 ± 0.1 ^b %IA/g and the “activity uptake in pancreas” value (PC3-pip xenografts [2]; 1 h pi) was 0.6 ± 0.1 ^b %IA/g. For the same molecule, the “activity uptake in salivary gland” value (PC3-pip xenografts [2]; 1 h pi) was 1.4 ± 0.2 ^b %IA/g, the “activity uptake in small intestines” value (PC3-pip xenografts [2]; 1 h pi) was 0.5 ± 0.1^b %IA/g and the “activity uptake in spleen” value (PC3-pip xenografts [2]; 1 h pi) was 1.9 ± 0.8 %IA/g. For the same molecule, the “activity uptake in stomach” value (PC3-pip xenografts [2]; 1 h pi) was 1.5 ± 0.4 %IA/g, the “activity uptake in tumor” value (PC3-pip xenografts [2]; 1 h pi) was 19 ± 4 %IA/g and the tumor-to-blood ratio (PC3-pip xenografts [2]; 1 h pi) was 22 ± 12 ^b. For the same molecule, the tumor-to-bone ratio (PC3-pip xenografts [2]; 1 h pi) was 27 ± 17 ^b, the tumor-to-kidney ratio (PC3-pip xenografts [2]; 1 h pi) was 0.9 ± 0.3 ^b and the tumor-to-liver ratio (PC3-pip xenografts [2]; 1 h pi) was 17 ± 9 ^b. The tumor-to-lung ratio (PC3-pip xenografts [2]; 1 h pi) was 16 ± 5 ^b, the tumor-to-muscle ratio (PC3-pip xenografts [2]; 1 h pi) was 62 ± 25 ^b and the tumor-to-pancreas ratio (PC3-pip xenografts [2]; 1 h pi) was 38 ± 5 ^b. For the same molecule, the tumor-to-salivary gland ratio (PC3-pip xenografts [2]; 1 h pi) was 14 ± 3 ^b, the tumor-to-small intestines ratio (PC3-pip xenografts [2]; 1 h pi) was 41 ± 17 ^b and the tumor-to-spleen ratio (PC3-pip xenografts [2]; 1 h pi) was 9 ± 3 ^b. The tumor-to-stomach ratio (PC3-pip xenografts [2]; 1 h pi) was 13 ± 2 ^b, the activity in carcass (PC3-pip xenografts [2]; 3 h pi) was 1.7 ± 0.3 %IA/sample and the “activity in intestines with content” value (PC3-pip xenografts [2]; 3 h pi) was 1.7 ± 0.2 %IA/sample. For the same molecule, the “activity uptake in blood” value (PC3-pip xenografts [2]; 3 h pi) was 0.17 ± 0.04 %IA/g, the “activity uptake in bone” value (PC3-pip xenografts [2]; 3 h pi) was 0.2 ± 0.1 %IA/g and the “activity uptake in kidney” value (PC3-pip xenografts [2]; 3 h pi) was 9 ± 2 %IA/g. For the same molecule, the “activity uptake in liver” value (PC3-pip xenografts [2]; 3 h pi) was 0.3 ± 0.1 %IA/g, the “activity uptake in lung” value (PC3-pip xenografts [2]; 3 h pi) was 0.3 ± 0.1 %IA/g and the “activity uptake in muscle” value (PC3-pip xenografts [2]; 3 h pi) was 0.06 ± 0.02 %IA/g. The “activity uptake in pancreas” value (PC3-pip xenografts [2]; 3 h pi) was 0.13 ± 0.02 %IA/g, the “activity uptake in salivary gland” value (PC3-pip xenografts [2]; 3 h pi) was 0.5 ± 0.1 %IA/g and the “activity uptake in small intestines” value (PC3-pip xenografts [2]; 3 h pi) was 0.2 ± 0.1 %IA/g. The “activity uptake in spleen” value (PC3-pip xenografts [2]; 3 h pi) was 0.9 ± 0.5 %IA/g, the “activity uptake in stomach” value (PC3-pip xenografts [2]; 3 h pi) was 0.6 ± 0.2 %IA/g and the “activity uptake in tumor” value (PC3-pip xenografts [2]; 3 h pi) was 17 ± 3 %IA/g. It also gave a tumor-to-blood ratio (PC3-pip xenografts [2]; 3 h pi) of 94 ± 3, a tumor-to-bone ratio (PC3-pip xenografts [2]; 3 h pi) of 114 ± 29 and a tumor-to-kidney ratio (PC3-pip xenografts [2]; 3 h pi) of 1.9 ± 0.3. It also gave a tumor-to-liver ratio (PC3-pip xenografts [2]; 3 h pi) of 48 ± 5, a tumor-to-lung ratio (PC3-pip xenografts [2]; 3 h pi) of 52 ± 8 and a tumor-to-muscle ratio (PC3-pip xenografts [2]; 3 h pi) of 284 ± 19. For the same molecule, the tumor-to-pancreas ratio (PC3-pip xenografts [2]; 3 h pi) was 135 ± 11, the tumor-to-salivary gland ratio (PC3-pip xenografts [2]; 3 h pi) was 31 ± 3 and the tumor-to-small intestines ratio (PC3-pip xenografts [2]; 3 h pi) was 126 ± 57. The tumor-to-spleen ratio (PC3-pip xenografts [2]; 3 h pi) was 16 ± 4, the tumor-to-stomach ratio (PC3-pip xenografts [2]; 3 h pi) was 24 ± 2 and the “B max1 (binding maximum)” value (PSMA [3]) was 947 CPS. The Kd (PSMA [3]; read-out: K D1) was 0.089 nM, the Kd (PSMA [4]; PC3-pip, ref 15 (inferred, reference cell empty)) was 0.033 nM and the “Log D (octanol–water distribution coefficient)” value (physchem) was −2.5 ± 0.1.
In the case of `O=C(O)CCc1ccc(O)c(CN(CCN(CC(=O)O)Cc2cc(CCC(=O)NCCCCCC(=O)NCCCC[C@H](NC(=O)N[C@@H](CCC(=O)O)C(=O)O)C(=O)O)ccc2O)CC(=O)O)c1` [PSMA-11], the Kd (PSMA [4]; nonlabeled PSMA-11, ref 29 (inferred, citation mark not shown)) is listed as 0.5 ± 0.2 nM.
